Reference: patent US8217005B2 (priority 2006, dated 2012)

Legend:
[1] = biological target: T1, human μ-opioid receptor (Homo sapiens, UniProt P35372); assay: biochemical; assay type: binding
T1 construct: expressed in transfected cells; host or cells: HEK-293 cells

[2] = rat, in vivo
[3] = male, Sprague-Dawley, rat, in vivo, 0.5 mg/kg

T1 sequence (P35372 whole entry): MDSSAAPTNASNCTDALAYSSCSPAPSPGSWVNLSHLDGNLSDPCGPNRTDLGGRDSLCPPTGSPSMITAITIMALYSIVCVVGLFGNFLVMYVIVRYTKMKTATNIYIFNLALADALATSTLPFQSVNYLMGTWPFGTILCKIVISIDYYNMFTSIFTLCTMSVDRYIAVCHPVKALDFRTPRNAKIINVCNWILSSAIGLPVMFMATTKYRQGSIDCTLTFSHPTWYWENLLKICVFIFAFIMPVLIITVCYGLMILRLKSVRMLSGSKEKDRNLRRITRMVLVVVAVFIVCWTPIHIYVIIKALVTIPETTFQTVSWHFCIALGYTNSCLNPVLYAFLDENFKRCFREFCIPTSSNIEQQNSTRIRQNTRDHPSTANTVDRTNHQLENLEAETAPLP

For `CN(CCNC(=O)[C@@H](N)CCCNC(=N)N)C(=O)Oc1ccc2c3c1OC1C(=O)CCC4[C@@H](C2)N(C)CC[C@]314` (stereo partly drawn) [Example 1, Hydromorphone 3-(N-methyl-N-(2-arginylamino))ethylcarbamate], the IC50 [1] was 2100 nM.

Molecule `CC(=O)N[C@@H](CCCNC(=N)N)C(=O)NCCN(C)C(=O)Oc1ccc2c3c1OC1C(=O)CCC4[C@@H](C2)N(C)CC[C@]314` (stereo partly drawn) [Example 3, Hydromorphone 3-(N-methyl-N-(2-N′-acetylarginylamino))ethylcarbamate] has an IC50 [1] of 1300 nM.

In the case of `CN(CCNC(=O)[C@H](CCCNC(=N)N)NC(=O)c1ccc2c(c1)OCO2)C(=O)Oc1ccc2c3c1OC1C(=O)CCC4[C@@H](C2)N(C)CC[C@]314` (stereo partly drawn) [Example 6, Hydromorphone 3-(N-methyl-N-(N′-piperonyl-2-arginylamino))ethylcarbamate], the IC50 [1] is reported as 790 nM.

With `CN(CCNC(=O)[C@@H](N)CCCCN)C(=O)Oc1ccc2c3c1OC1C(=O)CCC4[C@@H](C2)N(C)CC[C@]314` (stereo partly drawn) [Example 7, Hydromorphone 3-(N-methyl-N-(2-lysinylamino))ethylcarbamate] the IC50 [1] was 790 nM.

In the case of `CN(CCN)C(=O)Oc1ccc2c3c1O[C@H]1C(=O)CC[C@@]4(O)[C@@H](C2)[N+](C)(CC2CC2)CC[C@]314.Cl.[Cl-]` (stereo partly drawn) [Example 19], the “pharmacokinetic profile (e.g. oral bioavailability), FIG. 1” value ([2]; 20 mg/kg) is reported as “improved pharmacokinetic profile” and the “Cmax value compared to (R)-N-methylnaltrexone” value ([2]; po) is reported as “superior”.

For `C[N@+]1(CC2CC2)CC[C@]23c4c5ccc(O)c4O[C@H]2C(=O)CC[C@@]3(O)[C@H]1C5` [N-methylnaltrexone, (R)—N-methylnaltrexone, reference compound], the “Cmax N-MTX following PO dosing” value ([2]; 20 mg/kg) was 6 ng/mL and the “pharmacokinetic profile (e.g. oral bioavailability), FIG. 1” value ([2]; 20 mg/kg) was “poor pharmacokinetic profile”.

For `CN1CC[C@]23c4c5ccc(O)c4O[C@H]2C(=O)CC[C@@]3(O)[C@H]1C5` [oxymorphone], the “Cmax OM following IV dosing” value [3] was 432 ng/mL.
